Data as given in US20210322443A1 (MAPREG, priority 2015, published 2021).

How the values were obtained:
[1] = biological target: T1, human progesterone receptor(PR) (Homo sapiens, UniProt P06401); experiment: Progesterone receptor antagonist transactivation test (progesterone 1 nM) in transfected HEK293T cells; format: cell-based; settings: with progesterone 1 nM, increasing amounts, FIG. 2
T1 construct: expressed in transfected cells; host or cells: HEK293T
T1 sequence (P06401 1-933): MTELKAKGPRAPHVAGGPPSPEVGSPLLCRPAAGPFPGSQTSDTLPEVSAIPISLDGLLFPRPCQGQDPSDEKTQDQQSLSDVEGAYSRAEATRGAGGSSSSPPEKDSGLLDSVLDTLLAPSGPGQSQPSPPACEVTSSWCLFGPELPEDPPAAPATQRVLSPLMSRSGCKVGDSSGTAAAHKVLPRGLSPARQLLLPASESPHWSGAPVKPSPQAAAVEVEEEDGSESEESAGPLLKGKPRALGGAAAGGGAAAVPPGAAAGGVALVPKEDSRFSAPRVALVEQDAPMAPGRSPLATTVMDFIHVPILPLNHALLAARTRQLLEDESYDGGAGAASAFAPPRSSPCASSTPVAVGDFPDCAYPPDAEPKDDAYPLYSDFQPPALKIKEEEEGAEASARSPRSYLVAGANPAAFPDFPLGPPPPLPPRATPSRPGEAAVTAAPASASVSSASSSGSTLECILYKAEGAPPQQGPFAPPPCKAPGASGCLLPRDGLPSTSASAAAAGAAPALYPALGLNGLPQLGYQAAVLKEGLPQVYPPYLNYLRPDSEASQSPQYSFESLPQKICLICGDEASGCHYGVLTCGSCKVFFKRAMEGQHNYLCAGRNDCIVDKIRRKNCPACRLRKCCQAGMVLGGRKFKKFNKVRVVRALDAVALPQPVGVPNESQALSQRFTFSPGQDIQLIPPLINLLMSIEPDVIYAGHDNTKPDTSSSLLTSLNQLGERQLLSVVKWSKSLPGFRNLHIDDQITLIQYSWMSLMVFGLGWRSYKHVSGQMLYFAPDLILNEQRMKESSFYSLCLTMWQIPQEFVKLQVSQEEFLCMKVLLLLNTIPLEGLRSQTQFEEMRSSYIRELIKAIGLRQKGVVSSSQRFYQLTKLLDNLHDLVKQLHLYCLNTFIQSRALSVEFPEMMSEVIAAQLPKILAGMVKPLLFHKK
Method: The main experimental setting used is the following: HEK293T cells were transiently transfected, using calcium phosphate precipitation technology, with expression vectors pSG5hPR (which permits expression of human progesterone receptor(PR)), pFC31-luc (contains the luciferase gene under the control of the MMTV promoter, which is in turn activated by binding of a progestin to progesterone receptor) and pcbetagal (which permits expression of betagalactosidase), and cultured during 24 hours with increasing amounts of various compositions: • 1. […] Test of progesterone receptor […] activity: transfected cells were cultured with progesterone (1 nM) and increasing amounts of RU486 (a well-known progesterone receptor antagonist) or 3-methoxy-pregnenolone. • With this setting, a compound with progesterone receptor antagonist activity competes with progesterone for the occupation of progesterone receptor and results in a progressive loss of transactivation activity when the amount of this compound is increased compared to progesterone.

[2] = biological target: Muscarinic (Cholinergic) M1 (Homo sapiens, UniProt P11229); experiment: CNS receptor binding assay; settings: [3H] pirenzepine, Human recombinant (CHO cells), read-out: % Inhibition of control specific binding
Chain of Muscarinic (Cholinergic) M1 (P11229 whole entry): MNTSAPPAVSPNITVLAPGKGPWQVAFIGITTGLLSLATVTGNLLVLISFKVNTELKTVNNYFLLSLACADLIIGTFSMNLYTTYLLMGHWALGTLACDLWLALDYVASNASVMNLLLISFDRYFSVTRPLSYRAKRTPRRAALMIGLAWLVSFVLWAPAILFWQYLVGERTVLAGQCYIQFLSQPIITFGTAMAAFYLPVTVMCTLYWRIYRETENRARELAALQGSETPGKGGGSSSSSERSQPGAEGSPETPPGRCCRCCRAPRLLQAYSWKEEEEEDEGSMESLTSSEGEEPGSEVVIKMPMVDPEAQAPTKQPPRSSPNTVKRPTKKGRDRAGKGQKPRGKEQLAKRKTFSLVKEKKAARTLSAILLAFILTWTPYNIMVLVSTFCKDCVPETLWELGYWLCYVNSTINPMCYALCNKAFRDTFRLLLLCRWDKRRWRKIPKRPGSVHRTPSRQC

[3] = biological target: Muscarinic (Cholinergic) M3 (Homo sapiens, UniProt P20309); experiment: CNS receptor binding assay; settings: [3H] 4-DAMP, Human recombinant (CHO cells), read-out: % Inhibition of control specific binding
[4] = biological target: Muscarinic (Cholinergic) M5 (Homo sapiens, UniProt P08912); experiment: CNS receptor binding assay; settings: [3H] 4-DAMP, Human recombinant (CHO cells), read-out: % Inhibition of control specific binding
Chain of Muscarinic (Cholinergic) M5 (P08912 whole entry): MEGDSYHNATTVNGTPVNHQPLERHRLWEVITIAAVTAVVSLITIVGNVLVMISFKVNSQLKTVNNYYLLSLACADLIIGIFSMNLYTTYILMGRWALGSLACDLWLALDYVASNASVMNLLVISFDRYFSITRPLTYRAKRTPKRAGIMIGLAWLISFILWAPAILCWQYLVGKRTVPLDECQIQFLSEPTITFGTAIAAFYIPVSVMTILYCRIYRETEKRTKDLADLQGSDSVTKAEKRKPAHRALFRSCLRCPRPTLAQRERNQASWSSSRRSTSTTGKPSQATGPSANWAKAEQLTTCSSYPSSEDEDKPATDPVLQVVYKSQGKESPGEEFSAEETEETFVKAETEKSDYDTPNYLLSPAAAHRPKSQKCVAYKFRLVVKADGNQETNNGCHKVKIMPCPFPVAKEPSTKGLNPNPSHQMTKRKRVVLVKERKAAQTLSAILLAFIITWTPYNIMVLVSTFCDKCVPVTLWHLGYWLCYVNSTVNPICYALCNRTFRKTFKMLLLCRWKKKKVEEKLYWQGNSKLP

[5] = biological target: Serotoninergic Transporter (Homo sapiens, UniProt P31645); experiment: CNS receptor binding assay; settings: [3H] imipramine, Human recombinant (CHO cells), read-out: % Inhibition of control specific binding
Chain of Serotoninergic Transporter (P31645 whole entry): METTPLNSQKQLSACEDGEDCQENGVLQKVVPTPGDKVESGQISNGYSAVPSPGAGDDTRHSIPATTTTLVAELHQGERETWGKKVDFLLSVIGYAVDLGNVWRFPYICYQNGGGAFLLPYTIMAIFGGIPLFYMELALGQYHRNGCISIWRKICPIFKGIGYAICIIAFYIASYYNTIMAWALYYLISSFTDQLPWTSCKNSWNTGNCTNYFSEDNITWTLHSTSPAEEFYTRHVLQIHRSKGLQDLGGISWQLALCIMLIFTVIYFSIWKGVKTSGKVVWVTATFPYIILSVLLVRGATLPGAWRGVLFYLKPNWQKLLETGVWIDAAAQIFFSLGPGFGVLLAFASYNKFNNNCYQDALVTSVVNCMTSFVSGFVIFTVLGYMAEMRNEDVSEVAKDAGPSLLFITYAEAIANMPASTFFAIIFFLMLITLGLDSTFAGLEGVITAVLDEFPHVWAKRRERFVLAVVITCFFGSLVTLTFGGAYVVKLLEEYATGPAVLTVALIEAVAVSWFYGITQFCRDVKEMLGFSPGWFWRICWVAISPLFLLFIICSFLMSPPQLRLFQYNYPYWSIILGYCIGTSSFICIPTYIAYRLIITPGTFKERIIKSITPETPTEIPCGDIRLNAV

GABA (non-selective) = experiment: CNS receptor binding assay; settings: 10 μM; [3H] GABA; rat cerebral cortex
NMDA PCP site = experiment: CNS receptor binding assay; settings: 10 μM; [3H] TCP; rat cerebral cortex
Oppioid κ = Oppioid κ (Rattus norvegicus, UniProt P34975); experiment: CNS receptor binding assay; settings: [3H] U 69593, rat recombinant (CHO cells), read-out: % Inhibition of control specific binding
Chain of Oppioid κ (P34975 whole entry): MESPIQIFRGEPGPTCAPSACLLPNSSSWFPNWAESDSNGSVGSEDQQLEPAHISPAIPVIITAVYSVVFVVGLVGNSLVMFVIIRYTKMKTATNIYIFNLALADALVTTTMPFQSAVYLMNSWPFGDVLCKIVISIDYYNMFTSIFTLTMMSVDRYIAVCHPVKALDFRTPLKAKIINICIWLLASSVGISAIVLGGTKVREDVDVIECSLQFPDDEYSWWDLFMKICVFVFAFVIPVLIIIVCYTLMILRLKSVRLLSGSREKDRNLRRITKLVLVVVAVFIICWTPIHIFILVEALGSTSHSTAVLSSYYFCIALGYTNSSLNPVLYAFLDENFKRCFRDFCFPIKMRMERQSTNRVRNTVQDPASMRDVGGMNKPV

[6] = test system: 80 different CNS neurotransmitters receptors; experiment: Screen for in vitro affinity to 80 CNS receptors; format: binding; settings: significant = inhibition higher than 50%
MAP2 = MAP2 (Homo sapiens, UniProt P11137); experiment: Binding by displacement of PREG-3H
[7] = biological target: purified tubulin and MAP2 (Homo sapiens, UniProt P11137); experiment: Increase in optical density at 345 nm of purified tubulin and MAP2 (microtubule polymerization); format: biochemical; settings: 37° C., GTP
Method: Activity is measured by the increase in optical density at 345 nm of a mixture of purified tubulin and MAP2, incubated at 37° C. in the presence of GTP.

Histaminergic H1 = Histaminergic H1 (Homo sapiens, UniProt P35367); experiment: CNS receptor binding assay; settings: read-out: % Inhibition of control specific binding
Chain of Histaminergic H1 (P35367 whole entry): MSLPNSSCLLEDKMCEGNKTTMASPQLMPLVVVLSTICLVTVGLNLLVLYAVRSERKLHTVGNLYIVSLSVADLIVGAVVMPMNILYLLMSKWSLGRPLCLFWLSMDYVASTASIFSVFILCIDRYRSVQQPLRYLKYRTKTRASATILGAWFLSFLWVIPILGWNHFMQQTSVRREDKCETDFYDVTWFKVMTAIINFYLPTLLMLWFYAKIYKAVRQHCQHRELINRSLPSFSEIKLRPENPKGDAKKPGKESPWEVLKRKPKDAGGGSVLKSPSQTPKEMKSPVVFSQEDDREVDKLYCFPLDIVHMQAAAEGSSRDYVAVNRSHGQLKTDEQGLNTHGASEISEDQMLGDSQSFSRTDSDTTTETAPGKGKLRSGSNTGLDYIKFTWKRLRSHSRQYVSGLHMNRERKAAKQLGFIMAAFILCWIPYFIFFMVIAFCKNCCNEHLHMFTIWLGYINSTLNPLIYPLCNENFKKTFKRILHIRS

Histaminergic H2 = Histaminergic H2 (Homo sapiens, UniProt P25021); experiment: CNS receptor binding assay; settings: read-out: % Inhibition of control specific binding
Chain of Histaminergic H2 (P25021 whole entry): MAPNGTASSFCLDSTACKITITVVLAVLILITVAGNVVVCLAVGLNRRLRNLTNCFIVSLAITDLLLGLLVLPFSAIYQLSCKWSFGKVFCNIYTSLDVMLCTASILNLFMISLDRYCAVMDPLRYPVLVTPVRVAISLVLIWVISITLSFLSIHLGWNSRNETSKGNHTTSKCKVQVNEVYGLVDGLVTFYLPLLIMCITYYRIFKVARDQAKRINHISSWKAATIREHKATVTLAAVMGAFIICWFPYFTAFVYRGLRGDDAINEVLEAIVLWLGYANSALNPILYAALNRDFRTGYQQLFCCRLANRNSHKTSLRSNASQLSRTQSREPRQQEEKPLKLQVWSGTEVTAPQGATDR

Noradrenergic α2 = experiment: CNS receptor binding assay; settings: 10 μM; [3H] RX 821002; rat cerebral cortex
Serotoninergic 5-HT1A = Serotoninergic 5-HT1A (Homo sapiens, UniProt P08908); experiment: CNS receptor binding assay; settings: read-out: % Inhibition of control specific binding
Chain of Serotoninergic 5-HT1A (P08908 whole entry): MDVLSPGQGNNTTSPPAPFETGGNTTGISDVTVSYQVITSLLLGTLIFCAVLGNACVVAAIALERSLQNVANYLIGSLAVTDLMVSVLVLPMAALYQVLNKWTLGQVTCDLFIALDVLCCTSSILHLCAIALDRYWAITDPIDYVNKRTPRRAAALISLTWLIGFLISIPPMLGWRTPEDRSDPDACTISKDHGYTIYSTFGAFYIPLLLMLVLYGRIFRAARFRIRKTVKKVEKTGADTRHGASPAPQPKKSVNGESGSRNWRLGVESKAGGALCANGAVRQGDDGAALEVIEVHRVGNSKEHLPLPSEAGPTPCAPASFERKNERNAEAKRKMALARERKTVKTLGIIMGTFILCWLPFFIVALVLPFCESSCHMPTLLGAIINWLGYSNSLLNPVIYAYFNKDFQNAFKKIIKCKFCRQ

Serotoninergic 5-HT2B = Serotoninergic 5-HT2B (Homo sapiens, UniProt P41595); experiment: CNS receptor binding assay; settings: read-out: % Inhibition of control specific binding
Serotoninergic 5-HT2C = Serotoninergic 5-HT2C (Homo sapiens, UniProt P28335); experiment: CNS receptor binding assay; settings: read-out: % Inhibition of control specific binding
Chain of Serotoninergic 5-HT2C (P28335 33-458): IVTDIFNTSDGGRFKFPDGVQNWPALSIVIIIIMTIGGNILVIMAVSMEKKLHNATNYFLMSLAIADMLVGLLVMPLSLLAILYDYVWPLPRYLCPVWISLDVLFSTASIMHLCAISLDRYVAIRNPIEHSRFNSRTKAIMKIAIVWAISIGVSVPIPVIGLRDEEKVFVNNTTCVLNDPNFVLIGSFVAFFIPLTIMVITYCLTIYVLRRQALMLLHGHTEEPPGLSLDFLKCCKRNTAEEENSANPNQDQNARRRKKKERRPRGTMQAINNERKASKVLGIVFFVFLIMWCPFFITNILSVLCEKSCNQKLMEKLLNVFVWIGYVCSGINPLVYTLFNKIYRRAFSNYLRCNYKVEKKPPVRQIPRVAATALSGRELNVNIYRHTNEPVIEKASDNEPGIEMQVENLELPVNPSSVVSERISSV

Serotoninergic 5-HT6 = Serotoninergic 5-HT6 (Homo sapiens, UniProt P50406); experiment: CNS receptor binding assay; settings: read-out: % Inhibition of control specific binding
Chain of Serotoninergic 5-HT6 (P50406 whole entry): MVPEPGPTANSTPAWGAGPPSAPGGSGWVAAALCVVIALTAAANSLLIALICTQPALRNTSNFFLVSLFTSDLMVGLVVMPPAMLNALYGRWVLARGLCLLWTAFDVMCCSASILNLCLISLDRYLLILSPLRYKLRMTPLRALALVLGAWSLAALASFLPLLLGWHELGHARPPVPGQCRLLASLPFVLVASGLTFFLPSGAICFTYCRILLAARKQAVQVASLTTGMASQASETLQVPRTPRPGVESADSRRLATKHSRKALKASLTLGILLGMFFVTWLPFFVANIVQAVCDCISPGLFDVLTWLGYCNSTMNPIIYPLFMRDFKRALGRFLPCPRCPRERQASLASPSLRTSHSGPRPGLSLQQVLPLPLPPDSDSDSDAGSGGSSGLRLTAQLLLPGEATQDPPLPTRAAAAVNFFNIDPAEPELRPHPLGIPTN

Dopaminergic D2S = Dopaminergic D2S (Homo sapiens, UniProt P14416); experiment: CNS receptor binding assay; settings: read-out: % Inhibition of control specific binding
Chain of Dopaminergic D2S (P14416 1-414 isoform P14416-2): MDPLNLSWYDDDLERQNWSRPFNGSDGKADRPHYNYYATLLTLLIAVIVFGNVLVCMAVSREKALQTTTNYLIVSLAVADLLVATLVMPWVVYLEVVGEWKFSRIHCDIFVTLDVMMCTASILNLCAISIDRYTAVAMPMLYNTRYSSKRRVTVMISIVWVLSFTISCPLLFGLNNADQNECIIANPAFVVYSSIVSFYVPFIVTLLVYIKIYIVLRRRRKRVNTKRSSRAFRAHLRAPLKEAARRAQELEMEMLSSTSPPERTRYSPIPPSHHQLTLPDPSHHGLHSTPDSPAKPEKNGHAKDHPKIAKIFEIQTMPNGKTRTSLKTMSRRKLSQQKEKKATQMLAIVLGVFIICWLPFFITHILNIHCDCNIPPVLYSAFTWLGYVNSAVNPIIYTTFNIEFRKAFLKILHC

Structure (SMILES): CO[C@H]1CC[C@@]2(C)C(=CC[C@H]3[C@@H]4CC[C@H](C(C)=O)[C@@]4(C)CC[C@@H]32)C1 [MAP4343, 3β-methoxy-pregna-5-ene-20-one]
- progesterone receptor antagonist activity [1]: weak progesterone receptor antagonist
- inhibition at 10 µM [2]: -3%
- inhibition at 10 µM [3]: 3%
- inhibition at 10 µM [4]: 12%
- inhibition at 10 µM [5]: 3%
- % Inhibition of control specific binding (GABA (non-selective)): 2%
- % Inhibition of control specific binding (NMDA PCP site): −10%
- inhibition at 10 µM (Oppioid κ): 19%
- in vitro affinity for any tested receptor [6]: no significant affinity for any tested receptor
- Affinity (index of binding, percent of PREG) (MAP2): 100% of PREG
- Activity (percent of PREG) [7]: 100% of PREG
- inhibition at 10 µM (Histaminergic H1): 9%
- inhibition at 10 µM (Histaminergic H2): -21%
- % Inhibition of control specific binding (Noradrenergic α2): 7%
- inhibition at 10 µM (Serotoninergic 5-HT1A): 2%
- inhibition at 10 µM (Serotoninergic 5-HT2B): -4%
- inhibition at 10 µM (Serotoninergic 5-HT2C): 7%
- inhibition at 10 µM (Serotoninergic 5-HT6): 12%
- inhibition at 10 µM (Dopaminergic D2S): 6%
